# Patent US9688707B2, “Bicyclic morpholino compounds and oligomeric compounds prepared therefrom” (Ionis Pharmaceuticals, Inc., priority 2014, dated 2017)
# System: complementary RNA with the sequence 5′-AGCAAAAAACGC-3′ (SEQ ID NO: 6)
# Experiment: Thermal stability (Tm) assay
# Type: binding
# Settings: for ΔTm: calculated relative to a DNA standard, same duplex and buffer as Tm; for Tm: duplex with complementary RNA strand, buffer 100 mM NaCl, 10 mM phosphate, 0.1 mM EDTA (pH 7), heating 0.5° C./min from 15° C. to 85° C.
# Procedure: A series of modified morpholino oligomeric compounds were evaluated in a thermal stability (Tm) assay. A Cary 100 Bio spectrophotometer with the Cary Win UV Thermal program was used to measure absorbance vs. temperature. For the Tm experiments, oligomeric compounds were prepared at a concentration of 8 μM in a buffer of 100 mM NaCl, 10 mM phosphate and 0.1 mM EDTA (pH 7). The concentration of the oligonucleotides was determined at 85° C. The concentration of each oligomeric compound was […] after mixing of equal volumes of test oligomeric compound and complimentary RNA strand. Oligomeric compounds were hybridized with the complimentary RNA strand by heating the duplex to 90° C. for 5 minutes followed by cooling to room temperature. Using the spectrophotometer, Tm measurements were taken by heating the duplex solution at a rate of 0.5° C./min in cuvette starting @15° C. and heating to 85° C. Tm values were determined using Vant Hoff calculations (A260 vs temperature curve) using non self-complementary sequences where the minimum absorbance which relates to the duplex and the maximum absorbance which relates to the non-duplex single strand are manually integrated into the program. The oligomeric compounds were hybridized to complementary RNA with the sequence 5′-AGCAAAAAACGC-3′ (SEQ ID NO: 6). ΔTm's are calculated relative to a DNA standard.
substance,measurement,value
"05/585595: GCGTTmRTTmRTTmRGCT, diamidate linkages, morpholino, 3′-cap NH (GCGTT_{mR}TT_{mR}TT_{mR}GCT; morpholino oligomer, diamidate linkages, modified morpholino nucleosides at marked places, 3'-NH cap, as printed in the source, key not given here)",ΔTm,5.3 °C
same,Tm,50.9 °C
"05/592592: GCGTTmRTTmRTTmRGCT, diamidate linkages, morpholino, 3′-cap NTr (trityl) (GCGTT_{mR}TT_{mR}TT_{mR}GCT; modified morpholino nucleosides, diamidate linkages, 3'-trityl cap, as printed in the source, key not given here)",ΔTm,−0.8
same,Tm,44.8 °C
"05/592594: GCGTTmSTTmSTTmSGCT, diamidate linkages, morpholino, 3′-cap NTr (trityl) (GCGTT_{mS}TT_{mS}TT_{mS}GCT; morpholino oligomer, diamidate linkages, modified morpholino nucleosides at marked places, 3'-trityl cap, as printed in the source, key not given here)",ΔTm,5.1 °C
same,Tm,50.7 °C
"05/592595: GCGTTmSTTmSTTmSGCT, diamidate linkages, morpholino, 3′-cap NH (GCGTT_{mS}TT_{mS}TT_{mS}GCT; modified morpholino nucleosides, diamidate linkages, 3'-NH cap, as printed in the source, key not given here)",ΔTm,10 °C
same,Tm,55.6 °C
"05/592978: GCGTTqTTqTTqGCT, q = bicyclic morpholino, diamidate linkages, 3′-cap NTr (trityl) (GCGTT_{q}TT_{q}TT_{q}GCT; bicyclic morpholino, diamidate linkages, 3'-trityl cap, as printed in the source, key not given here)",ΔTm,−2.2
same,Tm,43.4 °C
"05/592979: GCGTTqTTqTTqGCT, q = bicyclic morpholino, diamidate linkages, 3′-cap NH (GCGTT_{q}TT_{q}TT_{q}GCT; morpholino oligomer, diamidate linkages, bicyclic morpholino at marked places, 3'-NH cap, as printed in the source, key not given here)",ΔTm,3 °C
same,Tm,48.6 °C
"05/standard: DNA standard GCGTTTTTTGCT, PO linkages, unmodified DNA, 3′-cap OH (unmodified DNA) [reference compound]",Tm,45.6 °C
